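Each compound was tested at five concentrations against cells in 96-well plates for 48 hours. GI50: concentration for 50% inhibition of growth. TGI denotes the concentration required for complete inhibition of growth.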
Legend:
Test in all cases: DTP human tumour cell line panel, 48 h
COLO 205 colon = tested on: COLO 205 colon
EKVX NSCLC = tested on: EKVX NSCLC
HCC-2998 colon = tested on: HCC-2998 colon
OVCAR-3 ovarian = tested on: OVCAR-3 ovarian
SF-539 CNS = tested on: SF-539 CNS
SK-MEL-5 melanoma = tested on: SK-MEL-5 melanoma
SNB-19 CNS = tested on: SNB-19 CNS
SNB-75 CNS = tested on: SNB-75 CNS
UACC-257 melanoma = tested on: UACC-257 melanoma
UO-31 renal = tested on: UO-31 renal

Row | SMILES | TGI (COLO 205 colon) [µM] | TGI (EKVX NSCLC) [µM] | TGI (HCC-2998 colon) [µM] | TGI (OVCAR-3 ovarian) [µM] | TGI (SF-539 CNS) [µM] | TGI (SK-MEL-5 melanoma) [µM] | TGI (SNB-19 CNS) [µM] | TGI (SNB-75 CNS) [µM] | TGI (UACC-257 melanoma) [µM] | TGI (UO-31 renal) [µM] | GI50 (COLO 205 colon) [nM] | GI50 (HCC-2998 colon) [nM] | GI50 (OVCAR-3 ovarian) [nM] | GI50 (SF-539 CNS) [µM] | GI50 (SNB-19 CNS) [µM] | GI50 (SNB-75 CNS) [nM] | GI50 (UO-31 renal) [nM] | GI50 (EKVX NSCLC) [nM] | GI50 (SK-MEL-5 melanoma) [nM] | GI50 (UACC-257 melanoma) [nM]
1 | Cc1ccc(OCC2OC(n3cnc4nc(N)nc(Cl)c43)CC2Oc2ccc(C)cc2)cc1 (stereo not given) | 36.4 | 69.4 | 33.6 | 41 | > 100 | 41.3 | 30.4 | 30.4 | > 100 | – | – | – | – | – | – | – | – | – | – | –
2 | O=S(=O)(c1ccc(NC2=NC(c3ccc(O)cc3)(c3ccccc3O)c3ccccc32)cc1)c1ccc(NC2=NC(c3ccc(O)cc3)(c3ccccc3O)c3ccccc32)cc1 (stereo not given) | > 33.6 | > 52.6 | 15.4 | > 100 | > 100 | > 100 | > 100 | > 27.5 | > 47.9 | > 100 | – | – | – | – | – | – | – | – | – | –
3 | Cc1cc(C)nc(SC2=C(Nc3ccc(C)c(Cl)c3)C(=O)N(Cc3ccccc3)C2=O)n1 | > 160 | – | > 160 | > 160 | > 160 | – | > 160 | > 160 | – | > 160 | > 160000 | > 160000 | > 160000 | > 160 | > 160 | > 160000 | > 160000 | – | – | –
4 | Cc1cccc(Nc2nn3c(=O)c4c5c(sc4nc3s2)CCCC5)c1 | > 100 | – | – | > 100 | > 100 | > 100 | > 100 | 78.4 | > 100 | > 100 | – | – | – | – | – | – | – | – | – | –
5 | C[n+]1cccc2c(=O)c3ccccc3oc21 | > 100 | > 100 | > 100 | > 100 | > 100 | > 100 | > 100 | > 100 | – | > 100 | – | – | – | – | – | – | – | – | – | –
6 | O=c1cc(N2CCCC2)[nH]c(=O)n1Cc1ccccc1 | > 100 | > 100 | > 100 | – | > 100 | > 100 | > 100 | > 100 | > 100 | – | – | – | – | – | – | – | – | – | – | –
7 | COc1ccc(CC(N)c2ccc(OC)cc2)cc1 (stereo not given) | 36.9 | > 100 | 35 | > 100 | – | > 100 | > 100 | > 100 | > 100 | > 100 | – | – | – | – | – | – | – | – | – | –
8 | CCOc1ccc(N/C(=C(/C(Cl)=C(/Cl)N(CC)CC)[N+](=O)[O-])n2nnc3ccccc32)cc1 | 37.2 | 69.6 | > 100 | 24.3 | 47.4 | – | > 100 | 51.2 | > 100 | 45.2 | – | – | – | – | – | – | – | – | – | –
9 | NS(=O)(=O)c1ccc(/C=C/c2ccc(F)cc2)cc1 | > 100 | > 100 | > 100 | 57 | 96.1 | – | > 100 | > 100 | > 100 | 61.1 | – | – | – | 29.1 | – | – | – | – | – | –
10 | C=C[C@@H](C)[C@H](NS(=O)(=O)c1ccc(C)cc1)C(=O)OCC | > 100 | > 100 | – | 43.1 | > 100 | – | > 100 | 60.7 | 71.5 | 96.1 | – | – | – | – | – | – | – | – | – | –
11 | COc1ccc(N2C(=O)CC(=O)N(C(=O)COc3ccc(OCC(=O)N4C(=O)CC(=O)N(c5ccc(OC)cc5)C4=S)cc3)C2=S)cc1 | 39.8 | > 100 | > 100 | – | – | > 100 | > 100 | > 100 | > 100 | > 100 | – | – | – | – | – | – | – | – | – | –
12 | COc1cc([C@@H]2c3cc4c(cc3[C@@H](c3c(O)cc(O)c5c3O[C@H](c3ccc(O)c(O)c3)[C@@H](O)C5)[C@H]3COC(=O)[C@H]23)OCO4)cc(OC)c1OC | 51.8 | > 100 | 3.48 | 3.22 | > 100 | 92.7 | > 100 | – | 3.81 | – | – | – | – | – | – | – | – | – | – | –
13 | NCCCN(CCCN(C(=O)Nc1ccccc1)c1ccccc1)C(=O)Nc1ccccc1 | > 100 | > 100 | 62.3 | – | – | 40.7 | > 100 | 77.6 | 43.1 | 65.8 | – | – | – | – | – | – | – | – | – | –
14 | Cc1cc(S(=O)(=O)N/C(=C(\C#N)C(=O)c2ccc(Cl)cc2)[n+]2ccc(N(C)C)cc2)c([S-])cc1Cl | > 100 | – | > 100 | > 100 | > 100 | > 100 | – | – | – | > 100 | – | – | – | – | – | – | – | – | – | –
15 | COC(=O)c1cc(=O)[nH]c(=O)[nH]1 | – | > 100 | – | > 100 | – | > 100 | > 100 | > 100 | > 100 | > 100 | – | – | – | – | – | – | – | – | – | –
16 | CCOC(=O)CCC(NC(=O)OCc1ccccc1)C(=O)NC(CCC(=O)OCC)C(=O)NC(CCC(=O)OCC)C(=O)NC(CCC(=O)OCC)C(=O)NC(CCC(=O)OCC)C(=O)NC(CCC(=O)OCC)C(=O)NC(CCC(=O)OCC)C(=O)OCC (stereo not given) | – | – | 53.8 | > 100 | – | > 100 | > 100 | > 100 | > 100 | > 100 | – | – | – | – | – | – | – | – | – | –
17 | COP(=O)(OC)C(Cc1cn(C(C)=O)c2ccccc12)C(=O)O (stereo not given) | > 100 | – | > 100 | > 100 | – | > 100 | > 100 | > 100 | > 100 | > 100 | – | – | – | – | – | – | – | – | – | –
18 | CC(C)CNc1nc2ncnc(N)c2[nH]1 | > 100 | > 100 | > 100 | > 100 | > 100 | > 100 | > 100 | – | > 100 | > 100 | – | – | – | – | – | – | – | – | – | –
19 | COc1ccc2c3c1OC1C(=O)C=CC4(CC2)N(C)CCC314 (stereo not given) | 22.7 | 92.8 | 27.4 | > 100 | – | 24.4 | 76.9 | > 100 | > 100 | 78.5 | – | – | – | – | – | – | – | – | – | –
20 | Cc1cc(F)ccc1S(=O)(=O)Nc1cc(-c2c(O)ccc3ccccc23)c(O)c2ccccc12 | 4.94 | 7.45 | 4.38 | 10.3 | 3.59 | 3.52 | – | 11.7 | 9.33 | 13.3 | 2080 | 2170 | 2670 | 1.83 | – | 2320 | 2380 | 1930 | 1770 | 2600
21 | CCCCOC(=O)C(NC(C(=O)OCCCC)c1cc(C(C)(C)C)c(O)c(C(C)(C)C)c1)c1cc(C(C)(C)C)c(O)c(C(C)(C)C)c1 (stereo not given) | > 100 | > 100 | – | > 100 | > 100 | > 100 | > 100 | > 100 | > 100 | > 100 | – | – | – | – | – | – | – | – | – | –
22 | NC(=O)NNc1nc(-c2ccccc2)cs1 | > 100 | > 100 | > 100 | > 100 | – | > 100 | > 100 | > 100 | > 100 | > 100 | – | – | – | – | – | – | – | – | – | –

Reference: PubChem BioAssay (NCI)
